Measured values taken from ChEMBL document CHEMBL1201862, “PubChem BioAssay data set” (2004).
Where “and” joins values, the source holds several entries; their conditions need not be identical. Equal values may be shown once. Calls of active or inactive are those of the source. For most assays here, no stated cut-off is given here; in the data, actives have a measured EC50 and inactives only a lower limit.

Assays:
[1] = Luminescence Cell-Based Dose Confirmation HTS to Identify Activators of 5'UTR Stem-Loop Driven Alpha-Synuclein mRNA Translation in H4 Neuroglioblastoma Cells. [Related pubchem assays: 1829 (Project Summary), 1814 (Primary HTS)]; assay type: functional
H4 = assay: Luminescence Cell-Based Dose Response HTS to Identify Activators of 5'UTR Stem-Loop Driven Prion Protein mRNA Translation in H4 Neuroglioblastoma Cells. [Related pubchem assays: 1829 (Project Summary), 1814 (Primary HTS)]; assay type: functional; conditions: Homo sapiens
[2] = Luminescence Cell-Based Dose Response HTS to Identify Activators of Luciferase Translation or Activity in H4 […] Cells. [Related pubchem assays: 1829 (Project Summary), 1814 (Primary HTS)]; assay type: functional
[3] = NIH-3T3 fibroblast cytotoxicity, dose response, cytotoxicity control, cell-based, fluorescence, Alamar Blue, secondary assay (AID 2327); assay type: functional;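 further: NIH-3T3 mouse fibroblasts cultured with fluconazole at 8 µg/mL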
Cytochrome P450 2D6 = Cytochrome P450 2D6 (Homo sapiens, UniProt P10635);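 further: CYP2D6 member of a cytochrome P450 panel assay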
Cytochrome P450 2D6, sequence (P10635 whole entry): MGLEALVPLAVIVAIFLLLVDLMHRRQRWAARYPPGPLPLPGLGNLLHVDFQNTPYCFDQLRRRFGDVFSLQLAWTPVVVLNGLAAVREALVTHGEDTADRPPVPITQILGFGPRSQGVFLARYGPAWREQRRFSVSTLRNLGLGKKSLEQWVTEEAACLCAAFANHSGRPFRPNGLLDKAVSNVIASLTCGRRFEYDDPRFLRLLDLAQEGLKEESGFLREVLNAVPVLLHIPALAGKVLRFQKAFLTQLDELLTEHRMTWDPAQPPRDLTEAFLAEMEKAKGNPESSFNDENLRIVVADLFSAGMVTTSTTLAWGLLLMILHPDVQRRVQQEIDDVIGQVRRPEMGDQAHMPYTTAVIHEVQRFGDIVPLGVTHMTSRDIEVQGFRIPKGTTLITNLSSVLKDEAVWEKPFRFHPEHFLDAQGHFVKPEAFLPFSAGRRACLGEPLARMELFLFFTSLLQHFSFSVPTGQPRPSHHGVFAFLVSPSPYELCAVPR

[4] = tested on: Streptococcus sp. 'group A'; assay: growth inhibition of control SK(-) GAS strain, dose response, counter-screen for streptokinase expression inhibitor project, luminescence, kanamycin, BacTiterGlo, confirmation (AID 1900); assay type: functional, organism-based
Streptococcus = assay: Group A Streptococcus viability loss, dose response, counter-screen for streptokinase expression inhibitor project, luminescence, BacTiterGlo (AID 1915); assay type: functional, organism-based;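 further: potency for reduction of bacterial viability or growth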
Streptokinase A = target: T1, Streptokinase A (Streptococcus pyogenes serotype M1, UniProt P10520); assay: S. pyogenes streptokinase expression inhibitors, potency, dose response, plasminogen activation absorbance, OD405 (AID 1914); assay type: functional, Streptococcus pyogenes M1 GAS;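 further: secreted streptokinase activity via plasminogen activation per viability signal from cell pellet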
T1 sequence (P10520 whole entry): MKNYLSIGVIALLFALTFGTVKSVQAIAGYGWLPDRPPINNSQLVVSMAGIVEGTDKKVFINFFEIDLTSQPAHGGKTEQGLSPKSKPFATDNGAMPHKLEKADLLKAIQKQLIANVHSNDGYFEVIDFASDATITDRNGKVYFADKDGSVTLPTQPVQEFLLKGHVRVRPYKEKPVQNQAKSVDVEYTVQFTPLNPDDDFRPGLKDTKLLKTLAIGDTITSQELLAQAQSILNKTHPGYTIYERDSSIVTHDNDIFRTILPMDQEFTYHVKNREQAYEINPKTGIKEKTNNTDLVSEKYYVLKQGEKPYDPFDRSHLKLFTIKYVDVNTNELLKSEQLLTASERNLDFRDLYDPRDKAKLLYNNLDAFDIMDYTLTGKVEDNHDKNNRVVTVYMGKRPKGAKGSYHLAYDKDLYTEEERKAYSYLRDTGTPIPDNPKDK

[5] = target: T2, Heat shock factor protein 1 (Mus musculus, UniProt P38532); assay: HSF1 potentiators in luciferase reporter cells, confirmation, cell-based, NIH3T3, luminescence, dose retest (AID 435004); assay type: functional;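 further: stress induced by proteasome inhibitor MG132 added 30 min after compound; luciferase reporter driven by HSF1 response element in NIH3T3 cells; actives raise luminescence as potentiators of the MG132 stress response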
T2 sequence (P38532 whole entry): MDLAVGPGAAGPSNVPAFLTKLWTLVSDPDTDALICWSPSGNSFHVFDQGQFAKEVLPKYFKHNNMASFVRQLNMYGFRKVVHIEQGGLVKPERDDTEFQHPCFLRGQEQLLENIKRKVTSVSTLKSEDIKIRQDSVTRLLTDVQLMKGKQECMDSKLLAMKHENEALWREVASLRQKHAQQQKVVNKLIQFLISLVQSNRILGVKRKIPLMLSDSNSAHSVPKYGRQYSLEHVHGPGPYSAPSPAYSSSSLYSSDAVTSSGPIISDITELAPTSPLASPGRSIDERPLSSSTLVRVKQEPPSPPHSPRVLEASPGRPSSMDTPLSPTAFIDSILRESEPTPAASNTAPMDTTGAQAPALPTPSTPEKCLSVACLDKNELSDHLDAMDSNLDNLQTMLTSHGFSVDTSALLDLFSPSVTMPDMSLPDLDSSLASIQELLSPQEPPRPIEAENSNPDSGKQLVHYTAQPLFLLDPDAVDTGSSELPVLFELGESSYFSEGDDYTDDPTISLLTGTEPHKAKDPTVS

[6] = HEp-2 cell cytotoxicity, dose response, cytotoxicity control for RSV inhibitor project, HTS (AID 2410); assay type: functional; conditions: human respiratory syncytial virus
Protein skinhead-1 = target: T3, Protein skinhead-1 (Caenorhabditis elegans, UniProt P34707); assay type: functional
T3 sequence (P34707 whole entry): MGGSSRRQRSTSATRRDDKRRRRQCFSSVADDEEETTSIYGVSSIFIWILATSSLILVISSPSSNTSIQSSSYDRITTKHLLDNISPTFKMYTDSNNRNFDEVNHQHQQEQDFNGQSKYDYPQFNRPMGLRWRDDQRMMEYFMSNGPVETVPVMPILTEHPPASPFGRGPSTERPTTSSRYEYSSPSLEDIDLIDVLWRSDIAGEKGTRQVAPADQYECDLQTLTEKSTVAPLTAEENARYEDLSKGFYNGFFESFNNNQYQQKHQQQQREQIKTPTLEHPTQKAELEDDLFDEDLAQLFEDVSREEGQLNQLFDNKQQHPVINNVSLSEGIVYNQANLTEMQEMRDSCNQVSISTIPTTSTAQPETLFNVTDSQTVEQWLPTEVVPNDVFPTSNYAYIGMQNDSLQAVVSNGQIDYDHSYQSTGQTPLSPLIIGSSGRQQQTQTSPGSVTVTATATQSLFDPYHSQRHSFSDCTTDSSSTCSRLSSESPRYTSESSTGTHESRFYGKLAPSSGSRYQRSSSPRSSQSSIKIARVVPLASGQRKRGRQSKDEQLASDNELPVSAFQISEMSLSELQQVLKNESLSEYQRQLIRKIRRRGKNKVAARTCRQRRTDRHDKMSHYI

Paired box protein Pax-8 = Paired box protein Pax-8 (Homo sapiens, UniProt Q06710); assay: inhibitors of PAX8-driven TPO luciferase reporter, dose response, RMG-I cells, cherry-pick (AID 687027); assay type: functional, cell-based;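 further: luciferase reporter driven by Pax8 target thyroperoxidase promoter measured by SteadyGlo luminescence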
Paired box protein Pax-8, sequence (Q06710 whole entry): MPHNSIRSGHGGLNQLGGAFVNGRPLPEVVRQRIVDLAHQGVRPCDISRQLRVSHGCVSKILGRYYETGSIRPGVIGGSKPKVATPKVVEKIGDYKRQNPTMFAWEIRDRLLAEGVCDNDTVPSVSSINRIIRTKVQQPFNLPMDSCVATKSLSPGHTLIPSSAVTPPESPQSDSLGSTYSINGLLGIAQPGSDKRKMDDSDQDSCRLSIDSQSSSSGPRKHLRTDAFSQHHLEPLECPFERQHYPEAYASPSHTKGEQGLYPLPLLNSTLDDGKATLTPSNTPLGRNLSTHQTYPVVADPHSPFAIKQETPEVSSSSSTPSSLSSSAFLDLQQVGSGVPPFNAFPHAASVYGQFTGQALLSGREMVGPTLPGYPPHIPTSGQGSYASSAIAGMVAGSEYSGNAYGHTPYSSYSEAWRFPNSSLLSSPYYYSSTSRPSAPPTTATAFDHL

Cytochrome P450 3A4 = Cytochrome P450 3A4 (Homo sapiens, UniProt P08684);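 further: CYP3A4 tested as one member of a cytochrome P450 panel screen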
Cytochrome P450 3A4, sequence (P08684 whole entry): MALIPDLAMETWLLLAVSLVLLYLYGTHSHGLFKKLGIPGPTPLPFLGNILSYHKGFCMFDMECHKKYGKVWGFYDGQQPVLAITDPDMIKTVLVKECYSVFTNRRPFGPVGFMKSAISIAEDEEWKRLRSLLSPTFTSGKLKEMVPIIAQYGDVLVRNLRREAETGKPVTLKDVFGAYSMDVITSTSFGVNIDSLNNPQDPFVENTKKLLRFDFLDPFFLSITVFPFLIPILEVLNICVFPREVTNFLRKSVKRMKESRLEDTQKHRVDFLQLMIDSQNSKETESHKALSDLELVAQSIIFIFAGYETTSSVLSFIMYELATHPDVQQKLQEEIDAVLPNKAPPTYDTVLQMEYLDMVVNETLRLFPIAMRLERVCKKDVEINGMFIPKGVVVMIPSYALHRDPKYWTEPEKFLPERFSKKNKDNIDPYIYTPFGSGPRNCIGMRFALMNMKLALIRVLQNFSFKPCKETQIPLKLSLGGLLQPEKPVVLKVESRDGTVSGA

[7] = target: T2, Heat shock factor protein 1; assay: inhibition of MG132-induced HSE-luciferase signal, confirmation, cell-based, NIH3T3, luminescence, dose retest (AID 2382); assay type: functional;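 further: NIH3T3 fibroblasts with HSF1-driven luciferase reporter stressed by proteasome inhibitor MG132; luminescence from HSF1-driven luciferase expression after 8 hours of MG132 stress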
Cytochrome P450 2C9 = Cytochrome P450 2C9 (Homo sapiens, UniProt P11712)
Cytochrome P450 2C9, sequence (P11712 whole entry): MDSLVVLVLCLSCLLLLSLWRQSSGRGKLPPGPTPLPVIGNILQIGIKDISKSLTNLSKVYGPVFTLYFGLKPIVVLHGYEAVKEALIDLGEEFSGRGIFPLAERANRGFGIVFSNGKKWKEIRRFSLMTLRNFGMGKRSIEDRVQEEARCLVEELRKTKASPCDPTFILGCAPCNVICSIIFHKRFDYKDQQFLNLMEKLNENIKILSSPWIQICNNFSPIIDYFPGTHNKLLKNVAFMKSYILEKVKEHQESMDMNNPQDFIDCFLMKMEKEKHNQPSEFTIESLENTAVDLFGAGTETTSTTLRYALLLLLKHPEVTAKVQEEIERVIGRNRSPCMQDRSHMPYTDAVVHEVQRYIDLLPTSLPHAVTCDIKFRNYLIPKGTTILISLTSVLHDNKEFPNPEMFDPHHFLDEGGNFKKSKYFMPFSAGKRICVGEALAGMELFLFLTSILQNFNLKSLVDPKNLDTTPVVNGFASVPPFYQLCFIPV

Cytochrome P450 1A2 = target: T4, Cytochrome P450 1A2 (Homo sapiens, UniProt P05177);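 further: PubChem cytochrome P450 panel assay, CYP1A2 panel member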
T4 sequence (P05177 whole entry): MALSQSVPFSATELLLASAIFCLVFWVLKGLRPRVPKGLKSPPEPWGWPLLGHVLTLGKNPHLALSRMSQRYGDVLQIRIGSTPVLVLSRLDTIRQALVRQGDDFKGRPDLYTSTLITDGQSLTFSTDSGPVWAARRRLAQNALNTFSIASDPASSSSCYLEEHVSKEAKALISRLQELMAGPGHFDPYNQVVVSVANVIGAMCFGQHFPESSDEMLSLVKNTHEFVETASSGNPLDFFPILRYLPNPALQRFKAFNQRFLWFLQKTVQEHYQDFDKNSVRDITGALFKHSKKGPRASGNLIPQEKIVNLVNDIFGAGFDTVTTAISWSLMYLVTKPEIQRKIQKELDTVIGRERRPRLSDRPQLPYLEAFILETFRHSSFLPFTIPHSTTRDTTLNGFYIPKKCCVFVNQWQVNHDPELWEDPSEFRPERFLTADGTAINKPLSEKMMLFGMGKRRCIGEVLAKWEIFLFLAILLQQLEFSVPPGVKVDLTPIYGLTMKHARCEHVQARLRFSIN

SMILES: O=C(c1ccccc1)N1CCN2C(=O)c3ccccc3C12c1ccc(Cl)cc1 (configuration not stated)
- EC50 [1]: > 120 µM (not active)
- EC50 (H4): 15.4 µM (active)
- EC50 [2]: 34.9 µM (active)

SMILES: CCOC(=O)c1cc2c(=O)n3ccccc3nc2n(CCOC)/c1=N\C(=O)c1ccncc1
- EC50 [3]: 115 µM (active)

SMILES: COc1ccccc1CCn1c(=O)c(-c2ccccc2)nc2cncnc21
- AC50 (Cytochrome P450 2D6): 12.6 µM (inconclusive)

SMILES: NNC(=O)c1ccc(OCC2CC(c3ccc(Cl)cc3)=NO2)cc1 (configuration not stated)
- EC50 [4]: > 150 µM (not active)
- EC50 (Streptococcus): > 150 µM (not active)
- EC50 (Streptokinase A): > 150 µM (not active)

SMILES: O=C(COc1ccc(Cl)cc1)NC1CCSC1=O (configuration not stated)
- EC50 [3]: > 160 µM (inactive)

SMILES: CCOC(=O)/C=C/C(=O)N1CCc2ccccc21
- EC50 [5]: 24.7 µM (active)

SMILES: Cn1ccnc1CN1CCCCC1C(=O)Nc1ccc(Oc2cccnc2)cc1 (configuration not stated)
- EC50 [1]: > 120 µM (not active)
- EC50 (H4): > 120 µM (not active)
- EC50 [2]: > 120 µM (not active)

SMILES: N=C(N)NC(=O)c1nc(Cl)c(N2CCCCCC2)nc1N [N,N-HEXAMETHYLENEAMILORIDE]
- AC50 (Cytochrome P450 2D6): 39.8 µM (inconclusive)
- CC50 [6]: 10.5 µM (active)

SMILES: Fc1ccc(-c2nc(-c3cnccn3)no2)c(Cl)c1
- EC50 [5]: > 260 µM (inactive)
- IC50 (Protein skinhead-1): > 100 µM (inactive)

SMILES: COc1ccc(C(=O)N(C)CC(O)c2ccccc2)cc1OC1CCN(C(C)=O)CC1 (configuration not stated)
- EC50 [5]: > 260 µM (inactive)

SMILES: CC(C)OC(=O)c1cccnc1N1CCN(c2cccc(Cl)c2)CC1
- EC50 [4]: 20.3 µM (active)
- EC50 (Streptococcus): > 150 µM (not active)
- EC50 (Streptokinase A): 19.3 µM (active)

SMILES: Cc1[nH]c2ccccc2c1C(=O)/C=C/c1ccccc1Cl
- EC50 [1]: 7.39 µM (active)
- EC50 (H4): 10.1 µM (active)

SMILES: CCCCCCN(C(=O)CCCN1C(=O)NC(c2ccc(-c3ccccc3)cc2)C(C(=O)OCc2ccccc2)=C1C)C(C)C(=O)NCCCC (configuration not stated)
- AC50 (Paired box protein Pax-8): 12.2 µM (active)

SMILES: C[C@@H]1CCCCO[C@H](CN(C)Cc2ccccc2)[C@H](C)CN([C@H](C)CO)C(=O)c2cc(NC(=O)Nc3ccc(C(F)(F)F)cc3)ccc2O1
- AC50 (Paired box protein Pax-8): 5.05 µM (active)

SMILES: CN1CC[C@@]2(CCN3CCc4c(oc5ccccc45)[C@@H]3C2)N(C)C1=O
- AC50 (Cytochrome P450 3A4): 12.6 µM (inconclusive)
- AC50 (Cytochrome P450 2D6): 31.6 µM (inconclusive)

SMILES: C[C@@H]1CCCCO[C@@H](CN(C)Cc2ccc(Cl)c(Cl)c2)[C@H](C)CN([C@H](C)CO)C(=O)c2cc(NC(=O)Nc3ccc(C(F)(F)F)cc3)ccc2O1
- AC50 (Paired box protein Pax-8): 2.39 µM (active)

SMILES: C=CCSc1ncc(-c2ccccc2)cn1
- EC50 [1]: 25.3 µM (active)
- IC50 (Protein skinhead-1): 11.4 µM (active)
- EC50 (H4): 24.5 µM (active)
- EC50 [2]: 16 µM (active)

SMILES: CCCC(=O)O/N=C(\c1ccccc1)c1ccncc1
- EC50 [5]: > 260 µM (inactive)

SMILES: C[C@H](N)Cc1c[nH]c2ccc(O)cc12
- AC50 (Cytochrome P450 2D6): 15.8 µM (inconclusive) and 39.8 µM (inconclusive)

SMILES: N#C/C(=C\c1cn(Cc2ccccc2)c2ccccc12)C(=O)NCc1ccco1
- EC50 [5]: 35.6 µM (active)

SMILES: Cc1ccc(NC(=O)c2c(Cl)n(C)c3ccccc23)cc1
- EC50 [5]: 31.5 µM (active)

SMILES: Cc1nc(Sc2ccc(Br)cc2)c(C#N)c(C)c1[N+](=O)[O-]
- EC50 [5]: 125 µM (active)

SMILES: Cc1ccc(S(=O)(=O)N/N=C2/CC(c3ccccc3)Oc3ccccc32)cc1[N+](=O)[O-] (configuration not stated)
- EC50 [1]: 15.9 µM (active)
- EC50 (H4): 13.8 µM (active)
- EC50 [2]: > 120 µM (not active)

SMILES: CSc1ccc(Cl)c(C(=O)OCC(=O)N(C)CCC#N)c1
- EC50 [5]: > 260 µM (inactive)

SMILES: N#Cc1ccc2nc(-c3ccc(CN4CCC(n5c(O)nc6ccccc65)CC4)cc3)c(-c3ccccc3)nc2c1
- AC50 (Paired box protein Pax-8): 8.95 µM (active)

SMILES: CCOc1ccc(CN(C)C(=O)CNC(=O)c2ccc3ccccc3c2)cc1OC
- EC50 [5]: > 260 µM (inactive)

SMILES: OCCN(Cc1ccccc1)Cc1cccc(Cl)c1Cl
- AC50 (Cytochrome P450 2D6): 1.58 µM (inconclusive)
- EC50 [7]: > 195 µM (not active)

SMILES: Cc1nn(-c2ccccc2)c(Cl)c1/C=N\NC(=O)c1cnccn1
- EC50 [1]: 23.6 µM (active)
- EC50 (H4): 15.3 µM (active)
- EC50 [2]: 14 µM (active)

SMILES: COc1cccc(Cn2c(=O)c(-c3ccc(Cl)cc3)nc3cnc(N4CCNCC4)nc32)c1
- AC50 (Cytochrome P450 3A4): 15.8 µM (inconclusive)
- AC50 (Cytochrome P450 2D6): 39.8 µM (inconclusive)

SMILES: COCCC/N=C(\c1ccco1)n1c(=S)nc(-c2ccco2)n(CCCOC)c1=S
- EC50 [1]: 11.9 µM (active)
- EC50 (H4): > 120 µM (not active)
- EC50 [2]: 11.6 µM (active)

SMILES: N=C(c1ccc2ccccc2c1)c1ccccc1Cc1ccccc1
- AC50 (Cytochrome P450 2D6): 3.16 µM (inconclusive)
- AC50 (Cytochrome P450 2C9): 7.94 µM (inconclusive)
- AC50 (Cytochrome P450 1A2): 501 nM (inconclusive)

SMILES: Cc1ccc(S(=O)(=O)N(C)C[C@H]2Oc3ccc(NC(=O)Cc4ccccc4)cc3C(=O)N([C@H](C)CO)C[C@@H]2C)cc1
- AC50 (Paired box protein Pax-8): 29.8 µM (active)
